Results: ChEMBL document CHEMBL1152844, “Synthesis and anti-HIV studies of 2- and 3-adamantyl-substituted thiazolidin-4-ones” (Eur J Med Chem, 2009)
Calls of active or inactive are those of the source. The calls are words filed in the database; no cut-off is given here.

What was measured:
[1] = test system: Respiratory syncytial virus; assay: Antiviral activity against Respiratory syncytial virus infected in human HeLa cells; type: functional, organism-based
CCRF-CEM = assay: Cytotoxicity against HIV-infected human CEM cells; type: cell-based; conditions: ccrf-cem
Influenza B virus = assay: Antiviral activity against Influenza virus type B infected in MDCK cells; type: functional, organism-based
Influenza A virus [2] = assay: Antiviral activity against Influenza virus type A H3N2 infected in MDCK cells; type: functional, organism-based
Sindbis virus = assay: Antiviral activity against Sindbis virus infected in african green monkey Vero cells; type: functional, organism-based
Coxsackievirus B4 [3] = assay: Antiviral activity against Coxsackievirus B4 infected in human HeLa cells; type: functional, organism-based
Human alphaherpesvirus 1 = assay: Antiviral activity against Herpes simplex virus type 1 infected in HEL cells; type: functional, organism-based
Vaccinia virus = assay: Antiviral activity against Vaccinia virus infected in HEL cells; type: functional, organism-based; conditions: Orthopoxvirus vaccinia
[4] = test system: Mammalian orthoreovirus 1; assay: Antiviral activity against Reovirus 1 infected in african green monkey Vero cells; type: functional, organism-based
Punta Toro virus = assay: Antiviral activity against Punta Toro virus infected in african green monkey Vero cells; type: functional, organism-based
Feline coronavirus = assay: Antiviral activity against Feline coronavirus infected in crandel feline kidney cells; type: functional, organism-based
Human respirovirus 3 = assay: Antiviral activity against Parainfluenza virus type 3 infected in african green monkey Vero cells; type: functional, organism-based
[5] = test system: Human immunodeficiency virus 2; assay: Antiviral activity against HIV2 ROD infected in human CEM cells assessed as inhibition of virus-induced cytopathicity after 4 days; type: functional, organism-based; conditions: Human immunodeficiency virus 2, ROD, CCRF-CEM, 96 h
Coxsackievirus B4 [6] = assay: Antiviral activity against Coxsackievirus B4 infected in african green monkey Vero cells; type: functional, organism-based
[7] = Selectivity index, ratio of CC50 for human CEM cells to EC50 for HIV1 3B; type: toxicity, cell-based, CCRF-CEM; conditions: read-out: Ratio CC50/EC50
[8] = test system: Human immunodeficiency virus 1; assay: Antiviral activity against HIV1 3B infected in human CEM cells assessed as inhibition of virus-induced cytopathicity after 4 days; type: functional, organism-based; conditions: Human immunodeficiency virus 1, 3B, CCRF-CEM, 96 h
[9] = test system: Vesicular stomatitis virus; assay: Antiviral activity against Vesicular stomatitis virus infected in human HeLa cells; type: functional, organism-based
Human alphaherpesvirus 2 = assay: Antiviral activity against Herpes simplex virus type 2 infected in HEL cells; type: functional, organism-based
[10] = test system: Vesicular stomatitis virus; assay: Antiviral activity against Vesicular stomatitis virus infected in HEL cells; type: functional, organism-based
Influenza A virus [11] = assay: Antiviral activity against Influenza virus type A H1N1 infected in MDCK cells; type: functional, organism-based

| SMILES | Activity [1] | CC50 (CCRF-CEM) | Activity (Influenza B virus) | Activity (Influenza A virus [2]) | Activity (Sindbis virus) | Activity (Coxsackievirus B4 [3]) | Activity (Human alphaherpesvirus 1) | Activity (Vaccinia virus) | Activity [4] | Activity (Punta Toro virus) | Activity (Feline coronavirus) | Activity (Human respirovirus 3) | EC50 [5] | Activity (Coxsackievirus B4 [6]) | selectivity ratio [7] | EC50 [8] | Activity [9] | Activity (Human alphaherpesvirus 2) | Activity [10] | Activity (Influenza A virus [11]) |
| --- | --- | --- | --- | --- | --- | --- | --- | --- | --- | --- | --- | --- | --- | --- | --- | --- | --- | --- | --- | --- |
| Cc1cc(Cl)nc(N2C(=O)CSC2CC23CC4CC(CC(C4)C2)C3)n1 (centres undefined) | inactive | 102 µM | inactive | inactive | inactive | inactive | inactive | inactive | inactive | inactive | inactive | inactive | ≥ 53 µM | inactive | < 1.9 | > 53 µM | inactive | inactive | inactive | inactive |
| Cc1cc(C)nc(N2C(=O)CSC2CC23CC4CC(CC(C4)C2)C3)c1 (centres undefined) | inactive | 115 µM | inactive | inactive | inactive | inactive | inactive | inactive | inactive | inactive | inactive | inactive | ≥ 54 µM | inactive | < 2 | > 54 µM | inactive | inactive | inactive | inactive |
| Cc1cccc(N2C(=O)CSC2CC23CC4CC(CC(C4)C2)C3)n1 (centres undefined) | inactive | 35 µM | inactive | inactive | inactive | inactive | inactive | inactive | inactive | inactive | inactive | inactive | 21.9 µM | inactive | 1.9 | 17.8 µM | inactive | inactive | inactive | inactive |
| Cc1cc(Cl)nc(N2C(=O)CSC2C23CC4CC(CC(C4)C2)C3)n1 (centres undefined) | inactive | > 275 µM | inactive | inactive | inactive | inactive | inactive | inactive | inactive | inactive | inactive | inactive | 120 µM | inactive | < 5 | ≥ 54.9 µM | inactive | inactive | inactive | inactive |
| O=c1[nH]cnc2c1ncn2[C@H]1CC[C@@H](CO)O1 [DIDANOSINE] |  | > 250 µM |  |  |  |  |  |  |  |  |  |  |  |  | > 54 |  |  |  |  |  |
| Cc1cc(N2C(=O)CSC2CC23CC4CC(CC(C4)C2)C3)nc(C)n1 (centres undefined) | inactive | 22.1 µM | inactive | inactive | inactive | inactive | inactive | inactive | inactive | inactive | inactive | inactive | ≥ 11.2 µM | inactive | < 1.9 | ≥ 11.2 µM | inactive | inactive | inactive | inactive |
| Cc1ccnc(N2C(=O)CSC2CC23CC4CC(CC(C4)C2)C3)n1 (centres undefined) | inactive | 27.3 µM | inactive | inactive | inactive | inactive | inactive | inactive | inactive | inactive | inactive | inactive | 23.5 µM | inactive | < 2.3 | ≥ 11.6 µM | inactive | inactive | inactive | inactive |
| COc1cc(C2SCC(=O)N2CC23CC4CC(CC(C4)C2)C3)cc(OC)c1OC (centres undefined) | inactive | 18 µM | inactive | inactive | inactive | inactive | inactive | inactive | inactive | inactive | inactive | inactive | ≥ 10.9 µM | inactive | < 1.6 | ≥ 10.9 µM | inactive | inactive | inactive | inactive |
| Cc1cc(C)nc(N2C(=O)CSC2CC23CC4CC(CC(C4)C2)C3)n1 (centres undefined) | inactive | 27 µM | inactive | inactive | inactive | inactive | inactive | inactive | inactive | inactive | inactive | inactive | 30 µM | inactive | 3 | 8.6 µM | inactive | inactive | inactive | inactive |
| O=C1CSC(CC23CC4CC(CC(C4)C2)C3)N1CCN1CCCC1 (centres undefined) | inactive | 77 µM | inactive | inactive | inactive | inactive | inactive | inactive | inactive | inactive | inactive | inactive | ≥ 57 µM | inactive | 1.6 | 48.7 µM | inactive | inactive | inactive | inactive |
| O=C1CSC(c2c(F)cccc2Cl)N1CC12CC3CC(CC(C3)C1)C2 (centres undefined) | inactive | 20.2 µM | inactive | inactive | inactive | inactive | inactive | inactive | inactive | inactive | inactive | inactive | ≥ 10.5 µM | inactive | 10 | 2 µM | inactive | inactive | inactive | inactive |
| Cc1cc(N2C(=O)CSC2C23CC4CC(CC(C4)C2)C3)nc(C)n1 (centres undefined) | inactive | 94 µM | inactive | inactive | inactive | inactive | inactive | inactive | inactive | inactive | inactive | inactive | ≥ 58.2 µM | inactive | < 1.6 | ≥ 58.2 µM | inactive | inactive | inactive | inactive |
| COc1cc(C2SCC(=O)N2CCC23CC4CC(CC(C4)C2)C3)cc(OC)c1OC (centres undefined) | inactive | 11.3 µM | inactive | inactive | inactive | inactive | inactive | inactive | inactive | inactive | inactive | inactive | 6.5 µM | inactive | 1.4 | 7.8 µM | inactive | inactive | inactive | inactive |
| Cc1ccnc2c1NC(=O)c1cccnc1N2C1CC1 [NEVIRAPINE] |  | > 50 µM |  |  |  |  |  |  |  |  |  |  | > 50 µM |  |  |  |  |  |  |  |
